Assay results as given in PMC5698418 (Nature Communications, 2017).
Counter-ions that a name gives are not always drawn. Like-named read-outs stand apart in the source and are kept apart here.

Tested on: BDNF-induced nuclear Arc expression in primary cortical neurons
Test: Chemogenomic screen: high-content image-based assay of BDNF-induced nuclear Arc expression (96-well)
Assay type: cell-based, mouse
Method: To increase the throughput of our pharmacological screening for modulators of Arc, the above mentioned assay was adapted to cultures of mouse primary cortical neurons in 96-well plates.
All 319 compounds were initially tested at a final concentration of 16.7 µM with three biological replicates.
Screening of compounds in the chemogenomic library was carried out using DIV13 primary forebrain cortical neurons cultured on poly-L-lysine/laminin-coated 96-well plates (Ibidi USA, Madison, WI). Cells were seeded at a density of 30,000 cells per well and treated with the compound library and BDNF according to the experimental design presented in Fig. 3a. After experimental treatment, cells were processed for Arc and acetyl-H3K9 immunocytochemistry according to the protocol described above. Both antigens (Arc and acetyl-H3K9) were imaged using an IN Cell Analyzer 6000 imaging system and a ×40 objective. […] High-throughput quantification of nuclear Arc immunofluorescence signal was performed in a similar fashion than the low-throughput procedure described above but with the exception that acetyl-H3K9 was used as a nuclear mask to guide the automated quantification of nuclear Arc immunofluorescence signal.

[1] = chemogenomic (SMART) screen, BDNF-induced nuclear Arc expression, primary cortical neurons, BDNF control 19.5
[2] = nuclear Arc-positive cells relative to DMSO + BDNF control, negative values = decrease
[3] = BDNF-induced nuclear Arc expression, primary cortical neurons, chemogenomic screen
[4] = nuclear Arc-positive cells relative to DMSO control (BDNF), negative = decrease

With CN1[C@@H]2CC[C@H]1C[C@@H](OC(=O)c1c[nH]c3ccccc13)C2 [Tropisetron] the “Percentage of cell with nuclear Arc immunostaining above 2σ threshold” value (“Percentage of cell” for short) [1] was 28.5% and the “Fold-change — Normalized to DMSO control (BDNF)” value (“Fold-change — Normalized” for short) [2] was 1.5 fold.

With CN(C)CCC=C1c2ccccc2CCc2ccccc21 [Amitriptyline] the “Percentage of cell” value [1] was 12.3%.

CC[C@@H](C(N)=O)N1CCCC1=O [Levetiracetam] was tested, and the “Percentage of cell” value [3] was 7.9%.

In the case of Bromocryptine, the “Percentage of cell” value is reported as 45.0% and the “Fold-change — Normalized” value [2] is reported as 2.3 fold.

For O=C(O)CNC(=O)c1c(O)c2ccccc2n(Cc2ccccc2)c1=O [IOX2], the “Percentage of cell” value [1] was 45.4% and the “Fold-change — Normalized” value [2] was 2.3 fold.

With O=c1c(O)c(-c2ccc(O)cc2)oc2cc(O)cc(O)c12 [Kaempferol] the “Percentage of cell” value [3] was 4.0%.

COc1ccc2c3c([nH]c2c1)C(C)=NCC3 [Harmaline] was tested, and the “Percentage of cell” value was 28.8% and the “Fold-change — Normalized” value [2] was 1.5 fold.

In the case of O=C(CCCN1CCC(n2c(O)nc3ccccc32)CC1)c1ccc(F)cc1 [Benperidol], the “Percentage of cell” value [1] is reported as 18.9%.

With Cc1cc(-c2ccccc2)nnc1NCCN1CCOCC1 [Minaprine] the “Percentage of cell” value [1] was 21.8% and the “Fold-change — Normalized” value [2] was 1.1 fold.

For CCN1CCCC1CNC(=O)c1cc(S(=O)(=O)CC)c(N)cc1OC (stereo not shown) [Amisulpride], the “Percentage of cell” value [1] was 24.6% and the “Fold-change — Normalized” value [2] was 1.3 fold.

In the case of Nc1ccn([C@@H]2O[C@H](CO)[C@@H](O)[C@H]2O)c(=O)n1 [Cytidine], the “Percentage of cell” value [1] is reported as 34.8% and the “Fold-change — Normalized” value [2] is reported as 1.8 fold.

Cc1ccsc1C(=CCCN1CCC[C@@H](C(=O)O)C1)c1sccc1C [Tiagabine] was tested, and the “Percentage of cell” value [3] was 7.4%.

In the case of CC1=NN=C(c2ccc(N)cc2)c2cc3c(cc2C1)OCO3 [GYKI-52466], the “Percentage of cell” value [1] is reported as 12.0%.

In the case of CCOc1ccc2nc(S(N)(=O)=O)sc2c1 [Ethoxzolamide], the “Percentage of cell” value [3] is reported as 8.4%.

In the case of C[C@H](NCc1ccc(OCc2cccc(F)c2)cc1)C(N)=O [Safinamide], the “Percentage of cell” value [1] is reported as 25.5% and the “Fold-change — Normalized” value [2] is reported as 1.3 fold.

For COc1ccccc1C1(O)CCN(CCCn2c3ccccc3c3ccccc32)CC1 [NNC 05-2090], the “Percentage of cell” value was 0.0% and the “Fold-change — Normalized” value [4] was 0.0 fold.

In the case of O=C(c1ccc2c(c1)OCCO2)N1CCCCC1 [CX-546], the “Percentage of cell” value is reported as 6.5% and the “Fold-change — Normalized” value [4] is reported as -3.0 fold.

LM22A-4 was tested, and the “Percentage of cell” value [1] was 14.0% and the “Fold-change — Normalized” value [2] was -1.4 fold.

In the case of CC(=O)Nc1nnc(S(N)(=O)=O)s1 [Acetazolamide], the “Percentage of cell” value [3] is reported as 4.9%.

In the case of CC(C)(C)OC(=O)c1ncn2c1[C@@H]1CCCN1C(=O)c1c(Br)cccc1-2 [Bretazenil], the “Percentage of cell” value is reported as 39.0% and the “Fold-change — Normalized” value [2] is reported as 2.0 fold.

For CNCCC(Oc1ccccc1OC)c1ccccc1 (stereo not shown) [Nisoxetine hydrochloride], the “Percentage of cell” value was 19.1%.

With OCCOCCN1CCN(C2=Nc3ccccc3Sc3ccccc32)CC1 [Quetiapine fumarate] the “Percentage of cell” value [1] was 25.9% and the “Fold-change — Normalized” value [2] was 1.3 fold.

With CCC1(C)CC(=O)NC1=O (stereo not shown) [Ethosuximide] the “Percentage of cell” value [1] was 21.8% and the “Fold-change — Normalized” value [2] was 1.1 fold.

NC(=O)OCC(COC(N)=O)c1ccccc1 [Felbamate] was tested, and the “Percentage of cell” value [1] was 14.3%.

In the case of Nc1nnc(-c2cccc(Cl)c2Cl)c(N)n1 [Lamotrigine], the “Percentage of cell” value [3] is reported as 4.8%.

CC(=O)[C@H]1CC[C@H]2[C@@H]3CC[C@H]4C[C@](C)(O)CC[C@]4(C)[C@H]3CC[C@]12C [Ganaxolone] was tested, and the “Percentage of cell” value was 22.6% and the “Fold-change — Normalized” value [2] was 1.2 fold.

With CC(C)c1c(CN(C)C(C)Cc2ccccc2)n(C)n(-c2ccccc2)c1=O (stereo not shown) [Famprofazone] the “Percentage of cell” value was 18.1%.

CC12CC3CC(C)(C1)CC(N)(C3)C2 [Memantine] was tested, and the “Percentage of cell” value [1] was 17.1%.

For CCN1CCC[C@H]1CNC(=O)c1c(OC)ccc(Br)c1OC [Remoxipride], the “Percentage of cell” value [1] was 35.4% and the “Fold-change — Normalized” value [2] was 1.8 fold.

With COc1cc2c(NC3CCN(C)CC3)nc(N3CCCN(C)CC3)nc2cc1OCCCN(C)C [UNC 0224] the “Percentage of cell” value [1] was 40.5% and the “Fold-change — Normalized” value [2] was 2.1 fold.

O=C(O)[C@H]1O[C@@H](Oc2cc3oc(-c4ccccc4)cc(=O)c3c(O)c2O)[C@H](O)[C@@H](O)[C@@H]1O [Baicalin] was tested, and the “Percentage of cell” value [1] was 34.6% and the “Fold-change — Normalized” value [2] was 1.8 fold.

COc1ccc(C(=O)NCc2ccc(OCCN(C)C)cc2)cc1OC.Cl [Itopride hydrochloride] was tested, and the “Percentage of cell” value was 23.8% and the “Fold-change — Normalized” value [2] was 1.2 fold.

With CC(C)C[C@H](CN)CC(=O)O [Pregabalin] the “Percentage of cell” value was 8.5%.

In the case of O=C([O-])CCCNC(=O)c1cccnc1.[Na+] [Picamilon sodium salt], the “Percentage of cell” value [1] is reported as 29.2% and the “Fold-change — Normalized” value [2] is reported as 1.5 fold.

In the case of CCN1CCC[C@H]1CNC(=O)c1cc(S(N)(=O)=O)ccc1OC [Levosulpiride], the “Percentage of cell” value [1] is reported as 28.2% and the “Fold-change — Normalized” value [2] is reported as 1.4 fold.

In the case of O=C(O)c1cccc(-c2noc(-c3ccccc3F)n2)c1 [Ataluren], the “Percentage of cell” value [1] is reported as 38.6% and the “Fold-change — Normalized” value [2] is reported as 2.0 fold.

With CCOC(=O)c1cncn1[C@H](C)c1ccccc1 [Etomidate] the “Percentage of cell” value was 13.0%.

For O=c1cc(-c2ccccc2)oc2c(O)c(O)ccc12 [7,8-Dihydroxyflavone], the “Percentage of cell” value [1] was 32.7% and the “Fold-change — Normalized” value [2] was 1.7 fold.

In the case of CN1[C@H]2C[C@H](OC(=O)[C@H](CO)c3ccccc3)C[C@@H]1[C@@H](O)C2 [Anisodamine], the “Percentage of cell” value is reported as 25.5% and the “Fold-change — Normalized” value [2] is reported as 1.3 fold.

For OC(CCN1CCCCC1)(c1ccccc1)C1CCCCC1 (stereo not shown) [Benzhexol hydrochloride], the “Percentage of cell” value [1] was 20.4% and the “Fold-change — Normalized” value [2] was 1.0 fold.

With CC(C)C[C@H](NC(=O)[C@H](CCCCN)NC(=O)[C@H](CCCN=C(N)N)NC(=O)[C@H](C)NC(=O)[C@H](CO)NC(=O)[C@H](CCCCN)NC(=O)[C@H](CCCN=C(N)N)NC(=O)[C@H](C)NC(=O)CNC(=O)[C@@H](NC(=O)[C@H](Cc1ccccc1)NC(=O)CNC(=O)CNC(=O)[C@@H](N)Cc1ccccc1)[C@@H](C)O)C(=O)N[C@@H](C)C(=O)N[C@@H](CC(N)=O)C(=O)N[C@@H](CCC(N)=O)C(=O)O [Nociceptin] the “Percentage of cell” value was 21.6% and the “Fold-change — Normalized” value [2] was 1.1 fold.

In the case of C#CCN(C)[C@H](C)Cc1ccccc1 [Selegiline], the “Percentage of cell” value is reported as 29.8% and the “Fold-change — Normalized” value [2] is reported as 1.5 fold.

With Cc1nc2n(c(=O)c1CCN1CCC(c3noc4cc(F)ccc34)CC1)CCCC2 [Risperidone] the “Percentage of cell” value was 6.3%.
